Data as given in the supplement of paper PMC10307832.

Tests used:
Experiment in all cases: relative viability (nuclei count vs DMSO), 5 days (fraction); higher = more cells survive
[1] = compound: CC1=CC=C(C=C1)C(=O)CN2C3=C(CCCC3)SC2=N [Pifithrin_alpha] + Cc1cc(Nc2cc(N3CCN(C)CC3)nc(Sc3ccc(NC(=O)C4CC4)cc3)n2)n[nH]1 [Tozasertib] (partner 0.1 µM)
Summary of the method: (§1)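 Lung cancer cell lines, seeded in 1536-well plates, were treated the following day by pin tool with a single drug or with five library-drug doses (not always all listed) in √10 steps on top of a fixed anchor-drug dose. Cells were fixed and nuclei stained in one step after 5 days, and nuclei were counted. Relative viability is the nuclei count for treated wells divided by that for vehicle wells, reported as medians of duplicate plates.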

[2] = compound: CC1=CC=C(C=C1)C(=O)CN2C3=C(CCCC3)SC2=N [Pifithrin_alpha] + NC(=O)Nc1cc(-c2cccc(F)c2)sc1C(=O)N[C@H]1CCCNC1 [AZD7762] (partner 0.2 µM)
Summary of the method: as §1

Axitinib + Palbociclib = compound: CNC(=O)c1ccccc1Sc1ccc2c(/C=C/c3ccccn3)n[nH]c2c1 [Axitinib] + CC(=O)c1c(C)c2cnc(Nc3ccc(N4CCNCC4)cn3)nc2n(C2CCCC2)c1=O [Palbociclib] (partner 0.5 µM)
Summary of the method: as §1

Bemcentinib + Tozasertib = compound: Nc1nc(Nc2ccc3c(c2)CC[C@@H](N2CCCC2)CC3)nn1-c1cc2c(nn1)-c1ccccc1CCC2 [Bemcentinib] + Cc1cc(Nc2cc(N3CCN(C)CC3)nc(Sc3ccc(NC(=O)C4CC4)cc3)n2)n[nH]1 [Tozasertib] (partner 0.1 µM)
Summary of the method: as §1

NCI-H650
relative viability ([1]; first compound 3.162 µM): 0.79 | relative viability ([1]; first compound 10 µM): 0.678 | relative viability ([1]; first compound 31.62 µM): 0.548 | relative viability ([1]; first compound 100 µM): 0.624 | relative viability ([2]; first compound 3.162 µM): 1.08 | relative viability ([2]; first compound 10 µM): 0.932 | relative viability ([2]; first compound 31.62 µM): 0.718 | relative viability ([2]; first compound 100 µM): 0.905 | relative viability (Axitinib + Palbociclib; first compound 0.005 µM): 0.327 | relative viability (Axitinib + Palbociclib; first compound 0.01581 µM): 0.342 | relative viability (Axitinib + Palbociclib; first compound 0.05 µM): 0.312 | relative viability (Axitinib + Palbociclib; first compound 0.1581 µM): 0.321 | relative viability (Axitinib + Palbociclib; first compound 0.5 µM): 0.325 | relative viability (Bemcentinib + Tozasertib; first compound 0.04 µM): 0.715 | relative viability (Bemcentinib + Tozasertib; first compound 0.1265 µM): 0.848 | relative viability (Bemcentinib + Tozasertib; first compound 0.4 µM): 0.798 | relative viability (Bemcentinib + Tozasertib; first compound 1.265 µM): 0.77 | relative viability (Bemcentinib + Tozasertib; first compound 4 µM): 0.718
